Assays:
Type in all cases: ADME
Conditions in all cases: probe aminopyrine
[1] = system: cytochrome P450; assay: Inactivation of cytochrome P450 in rat liver microsomes assessed as inhibition of aminopyrine demethylation at 1 mM measured without preincubation by Nash reagent based colorimetry (reference value: 0%)
[2] = system: cytochrome P450; assay: Inactivation of cytochrome P450 in rat liver microsomes assessed as inhibition of aminopyrine demethylation at 1 mM preincubated for 12 mins measured 5 mins after substrate addition by Nash reagent based colorimetry (reference value: 0%)
[3] = system: cytochrome P450; assay: Inactivation of cytochrome P450 in rat liver microsomes assessed as inhibition of aminopyrine demethylation at 1 mM preincubated for 12 mins measured 5 mins after substrate addition by Nash reagent based colorimetry in presence of CO/O2 (80:20) (reference value: 0%)
[4] = system: cytochrome P450; assay: Inactivation of cytochrome P450 in rat liver microsomes assessed as inhibition of aminopyrine demethylation at 1 mM preincubated for 12 mins measured 5 mins after substrate addition by Nash reagent based colorimetry in absence of cofactor NADPH-generating system (reference value: 0%)
[5] = system: cytochrome P450; assay: Inactivation of cytochrome P450 in rat liver microsomes assessed as inhibition of aminopyrine demethylation at 1 mM measured without preincubation by Nash reagent based colorimetry in presence of GSH (reference value: 0%)
[6] = system: cytochrome P450; assay: (§1) Inactivation of cytochrome P450 in rat liver microsomes assessed as inhibition of aminopyrine demethylation at 1 mM preincubated for 12 mins measured 5 mins after substrate addition by Nash reagent based colorimetry in presence of GSH (reference value: 0%)
[7] = system: cytochrome P450; assay: Inactivation of cytochrome P450 in rat liver microsomes assessed as inhibition of aminopyrine demethylation at 1 mM measured without preincubation by Nash reagent based colorimetry in presence of flavoprotein amine oxidase alternate substrate-inhibitor methimazole (reference value: 0%)
[8] = system: cytochrome P450; assay: as §1, with “flavoprotein amine oxidase alternate substrate-inhibitor methimazole” for “GSH”
[9] = system: cytochrome P450; assay: Inactivation of cytochrome P450 in rat liver microsomes assessed as inhibition of aminopyrine demethylation at 0.1 mM preincubated for 12 mins measured 5 mins after substrate addition by Nash reagent based colorimetry (reference value: 0%)

| inhibition at 5 min, 1000 µM [2] [%] | Structure (SMILES) | also measured |
| --- | --- | --- |
| 34 | c1ccc(CN2CCOCC2)cc1 | inhibition at 1000 µM [1]: 27% |
| 61 | c1ccc(CNC2CC2)cc1 | inhibition at 1000 µM [1]: 29%; inhibition at 5 min, 1000 µM [3]: 24%; inhibition at 5 min, 1000 µM [4]: 13%; inhibition at 1000 µM [5]: 17%; inhibition at 5 min, 1000 µM [6]: 62%; inhibition at 1000 µM [7]: 25%; inhibition at 5 min, 1000 µM [8]: 57% |
| 54 | COc1ccc(CNC2CC2)cc1 | – |
| 77 | Cc1ccc(CNC2CC2)cc1 | – |
| 79 | Clc1ccc(CNC2CC2)cc1 | – |
| 79 | Brc1ccc(CNC2CC2)cc1 | – |
| 0 | COc1ccc(CNC(C)C)cc1 | – |
| 2 | Cc1ccc(CNC(C)C)cc1 | – |
| 25 | CC(C)NCc1ccc(Cl)cc1 | – |
| 27 | CC(C)NCc1ccc(Br)cc1 | – |
| – | C(CCNC1CC1)=C1c2ccccc2CCc2ccccc21 | inhibition at 5 min, 100 µM [9]: 92% |
| – | CC(C)NCCC=C1c2ccccc2CCc2ccccc21 | inhibition at 5 min, 100 µM [9]: 55% |

| Structure (SMILES) | inhibition at 5 min, 1000 µM [2] [%] | also measured |
| --- | --- | --- |
| CC(C)NCc1ccccc1 | 9 | inhibition at 1000 µM [1]: 9% |

— ChEMBL document CHEMBL3227940, “Cyclopropylamines as suicide substrates for cytochromes P-450” (J Med Chem, 1979)
